# “And” between values parts separate entries of the source, which are not always exact repeats. Equal entries are not always repeated.
# How the values were obtained:
# [1] = molecular target: T1, topoisomerase Iα (Homo sapiens, UniProt P11387); assay: Topoisomerase I inhibition, human DNA topoisomerase Elisa kit; type: biochemical; conditions: ± SEM
# T1 construct: purchased
# T1 sequence (P11387 1-765): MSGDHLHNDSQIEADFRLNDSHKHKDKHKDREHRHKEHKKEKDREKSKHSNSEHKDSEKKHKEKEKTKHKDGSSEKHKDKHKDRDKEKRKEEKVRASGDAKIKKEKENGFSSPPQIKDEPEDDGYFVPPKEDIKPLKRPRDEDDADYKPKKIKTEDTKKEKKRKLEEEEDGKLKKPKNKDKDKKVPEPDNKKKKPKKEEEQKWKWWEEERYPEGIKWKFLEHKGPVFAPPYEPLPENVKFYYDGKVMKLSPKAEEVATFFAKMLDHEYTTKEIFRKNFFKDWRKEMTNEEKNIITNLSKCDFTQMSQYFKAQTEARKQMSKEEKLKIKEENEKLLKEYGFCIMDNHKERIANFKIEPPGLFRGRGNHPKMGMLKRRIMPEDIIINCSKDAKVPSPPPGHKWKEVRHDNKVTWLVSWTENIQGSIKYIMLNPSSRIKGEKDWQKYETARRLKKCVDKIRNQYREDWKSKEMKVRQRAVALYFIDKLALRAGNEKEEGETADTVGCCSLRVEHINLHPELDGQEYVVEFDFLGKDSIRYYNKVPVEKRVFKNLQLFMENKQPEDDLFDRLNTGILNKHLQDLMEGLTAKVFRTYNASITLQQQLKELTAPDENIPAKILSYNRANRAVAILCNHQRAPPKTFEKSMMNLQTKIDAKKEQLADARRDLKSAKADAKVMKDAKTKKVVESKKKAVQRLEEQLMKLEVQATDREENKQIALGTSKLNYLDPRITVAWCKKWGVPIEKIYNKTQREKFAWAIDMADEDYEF
# Method: Two folds of serial dilution was accomplished after standards and the tested compounds were dissolved in sample diluent. Horseradish peroxidase (HRP-avidin) and biotin-conjugated antibody were diluted 10 times each. Each well received 100 µL of each concentration of the standard or test chemicals, which were then added and incubated at 37 °C for 60 min. […] The microtiter plate was rinsed three times and given room to aspirate. After that, the plate was incubated at 37 °C for 60 min with 100 µL of HRP-avidin solution added to each well. After that, the plate was aspirated and cleaned 5 times. Each well received 90 µL of TMB substrate, and the plate was incubated for 30 min. at 37 °C in a light-protected environment. Finally, stop solution (50 µL) was loaded, and within 5 min, the absorbance at 450 nm was measured spectrophotometrically.
# Topoisomerase enzyme assay
# Topoisomerase I and II inhibitory activity […]
# topoisomerase IIβ inhibitory activity utilizing the human DNA topoisomerase Elisa kit.
# Standards and the tested compound were dissolved in sample diluent and 2 folds serial dilution was achieved. Biotin-conjugated antibody and avidin conjugated Horseradish Peroxidase (HRP-avidin) were diluted to 10 folds. 100 μL of each concentration of standard or test compound were added to each well. Incubate at 37 °C for 1 h. The liquid in each well was removed. 10 0 μL of Biotin-conjugated antibody solution was added to each well followed by incubation for 1 h at 37 °C. The microtiter plate was allowed to aspirate and washed 3 times. 100 μL of avidin conjugated Horseradish Peroxidase (HRP -avidin) solution was added to each well and the plate was incubated for 1 h at 37 °C. The plate was aspirated and washed 5 times. 90 μL of TMB substrate were added to each well and the plate was incubated for 30 min at 37 °C and protected from light. 50 μL stop so lution was added. The absorbance was measured spectrophotometrically within 5 min at 450 nm .
# [2] = system: Bax; assay: Western blot of protein expression in LOX IMVI cells; type: cell-based, human; conditions: control = 1
# Method: (§1) To evaluate the expression level of the apoptosis modulatory markers Bax, caspase 3 and PARP-1, western blot was performed as formerly described. Three different groups of LOX IMVI cells were permitted to grow to reach 70–80% confluence in […] flasks. The first group of LOX IMVI cells was treated with compound 3i. […] The media was taken out after 48 h, and cells underwent three rounds of ice-cold PBS washing. RIPA lysis buffer [consisting of Tris-HCl pH 7.6 (25 mM), NaCl (150 mM), EDTA (5 mM), NP-40 or Triton X-100 (1%), sodium deoxycholate (1%), SDS1 (1%)] with the proper phosphatase and a protease inhibitor was used to create the whole-cell lysate for 30 min. After centrifuging the mixture at 12,000 rpm for 20 min and sonicating it for five minutes, the supernatant was collected, split into aliquots, and kept at -80 °C. The Biuret method was used to determine protein content[27],[28]. Proteins in each matched cell lysate were denatured in 2 Laemmli buffer containing 5% β--mercaptoethanol at 95 °C for 5 min. For SDS-PAGE electrophoresis, 20 µg of protein per lane were loaded at 100 volts through a 6% stacking gel, then at 125 volts through a 10% resolving gel for around 2 h, and then transferred to a PVDF membrane using a semidry transfer apparatus (made by Cleaver Scientific) for 25 min. The PVDF membrane was first incubated for one hour at 4 °C in TBS buffer containing 0.1% Tween (TBST) and 5% fat-free milk, then overnight at 4 °C with monoclonal anti-Bax, anti-PARP-1, and anti-caspase-3 as primary antibodies (Cell Signalling Technology) at a dilution of 1:500. Membranes were first treated overnight, then three times washed in TBST buffer, then incubated at room temperature for 60 min with the corresponding HRP (horse radish peroxidase)-linked secondary antibodies (Dako). Then the substrate for the chemiluminescent Western ECL (Perkin Elmer, Waltham, MA) was added to the blot as described by the manufacturer by incubating the membranes with equal volumes of ECL solution A and ECL solution B for 1 min.
# [3] = system: active caspase-3; assay: as above; type: cell-based, human; conditions: control = 1
# Method: as §1
# [4] = system: PARP-1; assay: as above; type: cell-based, human; conditions: control = 1
# Method: as §1
# [5] = system: melanoma LOX IMVI cell line; assay: Cell cycle analysis, propidium iodide flow cytometry; type: cell-based, human
# Method: The effect of compound 3i on cell cycle progression of LOX IMVI cell line was evaluated using Propidium Iodide Flow Cytometry Kit to measure the DNA content according to the reported protocols. The LOX IMVI cells used in this work were obtained from the American Type Culture Collection. Cells were cultured in DMEM (Invitrogen/Life Technologies) supplemented with 10% FBS (Hyclone), 10 µg/ml insulin (Sigma), and 1% penicillin-streptomycin. The remaining chemicals and reagents were all from Sigma or Invitrogen. Growth media was removed, cells washed with warm PBS and aspirated. Adhered cells were detached from media by addition of 5 ml 10% trypsin/EDTA and incubated 2 min in the incubator. The suspended cells harvested, aspirated to a falcon tube, centrifuged at 2000 rpm for 5 min. Cell count performed after suspending the cells into a fresh media and stained with trypan blue, counted and used for preparation of the appropriate number of cells.
# [6] = LOX IMVI treated at IC50 concentration
compound,measurement,setting,value
"O=C(O)c1cn(C2CC2)c2cc(N3CCN(C(=O)CCCN4C(=O)CSC4=O)CC3)c(F)cc2c1=O [3 L, 1-Cyclopropyl-7-(4-(4-(2,4-dioxothiazolidin-3-yl)butanoyl)piperazin-1-yl)-6-fluoro-4-oxo-1,4-dihydroquinoline-3-carboxylic acid]",IC50,[1],18.8 ± 1.02 µM
"O=C(O)c1cn(C2CC2)c2cc(N3CCN(C(=O)CCCN4C(=O)SC(=Cc5ccccc5)C4=O)CC3)c(F)cc2c1=O [3a, 7-[4-[4-[5-benzylidene-2,4-dioxo-thiazolidin-3-yl]butanoyl]piperazin-1-yl]-1-cyclopropyl-6-fluoro-4-oxo-quinoline-3-carboxylic acid]",IC50,[1],14.5 ± 0.79 µM
"O=C(O)c1cn(C2CC2)c2cc(N3CCN(C(=O)CCCN4C(=O)SC(=Cc5cccc6ccccc56)C4=O)CC3)c(F)cc2c1=O [3j, 1-cyclopropyl-6-fluoro-7-[4-[4-[5-(1-naphthylmethylene)-2,4-dioxo-thiazolidin-3-yl]butanoyl]piperazin-1-yl]-4-oxo-quinoline-3-carboxylic acid]",IC50,[1],23.5 ± 1.28 µM
O=C(O)c1cn(C2CC2)c2cc(N3CCN(C(=O)CCCN4C(=O)S/C(=C\c5ccc([N+](=O)[O-])cc5)C4=O)CC3)c(F)cc2c1=O [3k],IC50,[1],36.6 ± 1.99 µM
O=C(O)c1cn(C2CC2)c2cc(N3CCN(C(=O)CCCN4C(=O)S/C(=C\c5ccc(F)cc5)C4=O)CC3)c(F)cc2c1=O [3i],Bax OD,[2],4.13
same,Caspace-3 Optical density (OD),[3],3.14
same,PARP-1 OD,[4],0.87
same,%G0-G1 DNA content,[5]; [6],45.53%
same,%G2/M DNA content,[5]; [6],9.41%
same,%Pre-G1 DNA content,[5]; [6],38.51%
same,%S DNA content,[5]; [6],45.06%
same,increase of percentage of cells at pre-G1,"[5]; LOX IMVI, versus control",20 folds
same,IC50,[1],4.8 µM and 4.77 µM
